The values that follow come from paper PMC11474975, “Enzyme Dynamics Determine the Potency and Selectivity of Inhibitors Targeting Disease-Transmitting Mosquitoes” (ACS Infectious Diseases, 2024).

In test [1] the test system is AChE1 from Anopheles gambiae (AgAChE1). Nature of the test: AgAChE1 inhibition, IC50 (Ellman assay). Type of test: biochemical. Conditions: class from experimental IC50. In general terms: In Ellman's method for cholinesterases, released thiocholine reacts with DTNB.
Test [2] has the same test system. Particulars: taken from previous publications; cited from earlier work.
The test system of test [3] is hAChE. The experiment in a line: hAChE inhibition, IC50. Type of test: biochemical, Homo sapiens.
The test system of test [4] is hAChE. Conditions: taken from previous publications; cited from earlier work.
Test [5] deals with T1, mAChE (Mus musculus, UniProt P21836).
T1 sequence (P21836 32-614): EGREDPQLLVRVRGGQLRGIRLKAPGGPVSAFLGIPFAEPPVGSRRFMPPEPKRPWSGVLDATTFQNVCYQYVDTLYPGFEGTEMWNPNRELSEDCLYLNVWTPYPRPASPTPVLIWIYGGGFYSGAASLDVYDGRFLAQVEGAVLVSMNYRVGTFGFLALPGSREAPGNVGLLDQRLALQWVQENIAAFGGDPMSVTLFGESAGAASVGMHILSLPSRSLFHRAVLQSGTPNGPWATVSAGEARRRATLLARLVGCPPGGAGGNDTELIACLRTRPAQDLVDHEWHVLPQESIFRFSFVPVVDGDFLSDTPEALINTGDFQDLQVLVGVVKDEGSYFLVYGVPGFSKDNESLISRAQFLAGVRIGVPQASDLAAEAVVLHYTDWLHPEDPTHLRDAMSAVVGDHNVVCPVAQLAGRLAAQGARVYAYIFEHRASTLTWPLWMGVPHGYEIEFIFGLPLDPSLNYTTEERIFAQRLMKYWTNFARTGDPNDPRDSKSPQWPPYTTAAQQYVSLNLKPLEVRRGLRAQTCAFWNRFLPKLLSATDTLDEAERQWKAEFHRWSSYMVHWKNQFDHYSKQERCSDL
The experiment in a line: mAChE inhibition, IC50 (Ellman assay). Conditions: for S.R. (selectivity ratio) mAChE vs AgAChE1: IC50 mAChE / IC50 AgAChE1; for mAChE inhibitor class (Strong/Weak): class from experimental IC50.
Procedure: Dilution series of eight concentrations were prepared (0.001–1000 and 0.1–1000 μM, respectively). Enzymatic activity was measured using the Ellman assay (adapted to a 96-well format) with secreted nonpurified protein in growth medium. A QIAgility robotic benchtop instrument (Qiagen) was used for automatic liquid handling when setting up assay plates. The assay was then performed at 30 °C in a final volume of 200 mL 0.1 M phosphate buffer (pH 7.4) containing 0.2 mM 5,5′-thiobis(2-nitrobenzoic acid) and 1 mM acetylcholine iodide. Changes in the wells’ absorbance at 412 nm were recorded over 60 s using a FlexStation 3 Multi-Mode Microplate Reader (Molecular Devices) to monitor the enzymatic reaction. Eight positive controls of uninhibited enzyme were assumed to represent 100% activity and used to determine the average slope. […] Nonlinear regression (curve fitting) in GraphPad Prism[54] was used to calculate IC50 values. The log[inhibitor] vs response variable slope equation was fitted using three parameters. Three independent replicates were used for the IC50 determination.

Test [6] concerns the target T1, mAChE. Also on record: made in house; method as in PMID 30339371, PMID 27598521, PMID 22140425. Particulars: taken from previous publications; cited from earlier work.

The structures appear in SMILES notation. Where two headings read alike, the source gives them in different places.

On to `O=C(COc1ccc(Cl)cc1Cl)Nc1ccc(CN2CCCCC2)cc1` [AL137], for which the “AgAChE1 inhibitor class (Strong/Weak)” value in test [1] is “Strong (strong and weak inhibitors of AgAChE1 from both classes (IC50 < 1 μM and IC50 > 5 μM, respectively)”. Moreover, the IC50 (commonly the concentration at which inhibition is half-maximal) in test [2] is 0.26 µM.
As to `COc1ccc(NC(=S)NCCN2CCC(C)CC2)cc1Cl` [AL201], the “S.R. (selectivity ratio) hAChE vs AgAChE1” value with hAChE [3] was 13. Moreover, in the test with hAChE [4], the half-inhibitory concentration (IC50) is 12 µM. For the same compound, on mAChE [5], the IC50 worked out at 26 µM; the “S.R. (selectivity ratio) mAChE vs AgAChE1” value stood at 27; the “mAChE inhibitor class (Strong/Weak)” value is “Weak (strong and weak inhibitors of AgAChE1 from both classes (IC50 < 1 μM and IC50 > 5 μM, respectively)”. Also, the “AgAChE1 inhibitor class (Strong/Weak)” value in test [1] is “Strong (strong and weak inhibitors of AgAChE1 from both classes (IC50 < 1 μM and IC50 > 5 μM, respectively)”. Also, the IC50 in test [2] was 0.96 µM.
Turning to `COc1ccccc1NC(=S)NCCN(C)C` [AL237], in the test with hAChE [3], the “S.R. (selectivity ratio) hAChE vs AgAChE1” value amounted to 17. For the same compound, the IC50 with hAChE [4] was 120 µM. Further, at mAChE [5], the midpoint of inhibition, the IC50, lay at 217 µM; the “S.R. (selectivity ratio) mAChE vs AgAChE1” value was 31; the “mAChE inhibitor class (Strong/Weak)” value was “Weak (strong and weak inhibitors of AgAChE1 from both classes (IC50 < 1 μM and IC50 > 5 μM, respectively)”. Besides, the “AgAChE1 inhibitor class (Strong/Weak)” value in test [1] was “Weak (strong and weak inhibitors of AgAChE1 from both classes (IC50 < 1 μM and IC50 > 5 μM, respectively)”. For the same compound, the IC50 in test [2] was 7.1 µM.
In the case of `O=C(COc1ccc(-c2ccccc2)cc1)NCCCN1CCCCC1` [AL264], the “S.R. (selectivity ratio) hAChE vs AgAChE1” value in the test with hAChE [3] is given as 6. Moreover, the values for the IC50 (on mAChE [6]; in the test with hAChE [4]; in test [2]) were 61 µM, 57 µM and 10 µM, respectively. Moreover, the “S.R. (selectivity ratio) mAChE vs AgAChE1” value on mAChE [5] is reported as 6. The “mAChE inhibitor class (Strong/Weak)” value at mAChE [5] was “Weak (strong and weak inhibitors of AgAChE1 from both classes (IC50 < 1 μM and IC50 > 5 μM, respectively)”. Moreover, in test [1], the “AgAChE1 inhibitor class (Strong/Weak)” value was “Weak (strong and weak inhibitors of AgAChE1 from both classes (IC50 < 1 μM and IC50 > 5 μM, respectively)”.
Regarding `CCN1CCN(C2CCN(C(=O)COc3ccc(-c4ccc(OC)cc4)cc3)CC2)CC1` [AL284], in the test on hAChE [3], the “S.R. (selectivity ratio) hAChE vs AgAChE1” value is on record as 45. Also, the results for the IC50 (on mAChE [6]; with hAChE [4]; in test [2]) were 29 µM, 18 µM and 0.4 µM, respectively. Further, on mAChE [5], the “S.R. (selectivity ratio) mAChE vs AgAChE1” value is recorded as 73. The “mAChE inhibitor class (Strong/Weak)” value on mAChE [5] was “Weak (strong and weak inhibitors of AgAChE1 from both classes (IC50 < 1 μM and IC50 > 5 μM, respectively)”. Moreover, in test [1], the “AgAChE1 inhibitor class (Strong/Weak)” value is “Strong (strong and weak inhibitors of AgAChE1 from both classes (IC50 < 1 μM and IC50 > 5 μM, respectively)”.
